Measured values published in patent publication US11021444B2, “Antiviral compounds” (priority 2013, dated 2021).
Read-outs that look alike come from different tables or passages of the source.

How the values were obtained:
[1] = Cytotoxicity Determination (CCK-8, without addition of virus); type: cell-based; settings: human
Procedure, shortened: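 Cytotoxicity was measured by CCK-8 after 3-4 hours at 37 °C, following 5 days of uninfected exposure at 37 °C and 5% CO2. Compounds ran as duplicate 7-point 1/2 dilutions starting at 100 μM, with 1% final DMSO. HEp-2 cells had been plated at 1,500/well the day before.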

recombinant RSV complex = recombinant RSV complex (Human respiratory syncytial virus A, UniProt P28887); experiment: RSV Polymerase Inhibition Assay; type: biochemical
Procedure, shortened: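 Inhibition measured as reduced incorporation of radiolabel into RNA products, detected by scintillation counting. Reactions: recombinant RSV complex (10 nM), RNA oligonucleotides, Tris-HCl pH 7.5, 6 mM MgCl2, inhibitor titration, 2 h at 30 °C, EDTA stop.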

[2] = test system: Respiratory Syncytial Virus (RSV) long strain; experiment: microbe, parasite or virus in culture; type: cell-based; settings: human respiratory syncytial virus, Tables A and B list compounds by EC50 band
Procedure, shortened: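 CPE-reduction format: viability measured colorimetrically with CCK-8 (450 nm, 630 nm reference) after 3-4 h, following 5-day infection at 37 °C, 5% CO2. Cells were HEp-2; inoculum 100 TCID50/well; duplicate 9-point 1/3 series starting at 100 μM or 1 μM.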

RSV replicon = experiment: microbe, parasite or virus in culture; type: cell-based; settings: human respiratory syncytial virus, read-out: EC50, the concentration of the drug required for reducing RSV replicon RNA by 50%
[3] = 50% cytotoxicity concentration (CC50)
[4] = HEp-2, 120 h, read-out: 50% effective concentration (EC50), HEp-2 cells infected with RSV long strain, 5 days, CCK-8 readout
[5] = 120 h, read-out: 50% effective concentration (EC50), HEp-2 cells infected with RSV long strain, 5 days, CCK-8 readout

recombinant RSV complex, sequence (P28887 whole entry): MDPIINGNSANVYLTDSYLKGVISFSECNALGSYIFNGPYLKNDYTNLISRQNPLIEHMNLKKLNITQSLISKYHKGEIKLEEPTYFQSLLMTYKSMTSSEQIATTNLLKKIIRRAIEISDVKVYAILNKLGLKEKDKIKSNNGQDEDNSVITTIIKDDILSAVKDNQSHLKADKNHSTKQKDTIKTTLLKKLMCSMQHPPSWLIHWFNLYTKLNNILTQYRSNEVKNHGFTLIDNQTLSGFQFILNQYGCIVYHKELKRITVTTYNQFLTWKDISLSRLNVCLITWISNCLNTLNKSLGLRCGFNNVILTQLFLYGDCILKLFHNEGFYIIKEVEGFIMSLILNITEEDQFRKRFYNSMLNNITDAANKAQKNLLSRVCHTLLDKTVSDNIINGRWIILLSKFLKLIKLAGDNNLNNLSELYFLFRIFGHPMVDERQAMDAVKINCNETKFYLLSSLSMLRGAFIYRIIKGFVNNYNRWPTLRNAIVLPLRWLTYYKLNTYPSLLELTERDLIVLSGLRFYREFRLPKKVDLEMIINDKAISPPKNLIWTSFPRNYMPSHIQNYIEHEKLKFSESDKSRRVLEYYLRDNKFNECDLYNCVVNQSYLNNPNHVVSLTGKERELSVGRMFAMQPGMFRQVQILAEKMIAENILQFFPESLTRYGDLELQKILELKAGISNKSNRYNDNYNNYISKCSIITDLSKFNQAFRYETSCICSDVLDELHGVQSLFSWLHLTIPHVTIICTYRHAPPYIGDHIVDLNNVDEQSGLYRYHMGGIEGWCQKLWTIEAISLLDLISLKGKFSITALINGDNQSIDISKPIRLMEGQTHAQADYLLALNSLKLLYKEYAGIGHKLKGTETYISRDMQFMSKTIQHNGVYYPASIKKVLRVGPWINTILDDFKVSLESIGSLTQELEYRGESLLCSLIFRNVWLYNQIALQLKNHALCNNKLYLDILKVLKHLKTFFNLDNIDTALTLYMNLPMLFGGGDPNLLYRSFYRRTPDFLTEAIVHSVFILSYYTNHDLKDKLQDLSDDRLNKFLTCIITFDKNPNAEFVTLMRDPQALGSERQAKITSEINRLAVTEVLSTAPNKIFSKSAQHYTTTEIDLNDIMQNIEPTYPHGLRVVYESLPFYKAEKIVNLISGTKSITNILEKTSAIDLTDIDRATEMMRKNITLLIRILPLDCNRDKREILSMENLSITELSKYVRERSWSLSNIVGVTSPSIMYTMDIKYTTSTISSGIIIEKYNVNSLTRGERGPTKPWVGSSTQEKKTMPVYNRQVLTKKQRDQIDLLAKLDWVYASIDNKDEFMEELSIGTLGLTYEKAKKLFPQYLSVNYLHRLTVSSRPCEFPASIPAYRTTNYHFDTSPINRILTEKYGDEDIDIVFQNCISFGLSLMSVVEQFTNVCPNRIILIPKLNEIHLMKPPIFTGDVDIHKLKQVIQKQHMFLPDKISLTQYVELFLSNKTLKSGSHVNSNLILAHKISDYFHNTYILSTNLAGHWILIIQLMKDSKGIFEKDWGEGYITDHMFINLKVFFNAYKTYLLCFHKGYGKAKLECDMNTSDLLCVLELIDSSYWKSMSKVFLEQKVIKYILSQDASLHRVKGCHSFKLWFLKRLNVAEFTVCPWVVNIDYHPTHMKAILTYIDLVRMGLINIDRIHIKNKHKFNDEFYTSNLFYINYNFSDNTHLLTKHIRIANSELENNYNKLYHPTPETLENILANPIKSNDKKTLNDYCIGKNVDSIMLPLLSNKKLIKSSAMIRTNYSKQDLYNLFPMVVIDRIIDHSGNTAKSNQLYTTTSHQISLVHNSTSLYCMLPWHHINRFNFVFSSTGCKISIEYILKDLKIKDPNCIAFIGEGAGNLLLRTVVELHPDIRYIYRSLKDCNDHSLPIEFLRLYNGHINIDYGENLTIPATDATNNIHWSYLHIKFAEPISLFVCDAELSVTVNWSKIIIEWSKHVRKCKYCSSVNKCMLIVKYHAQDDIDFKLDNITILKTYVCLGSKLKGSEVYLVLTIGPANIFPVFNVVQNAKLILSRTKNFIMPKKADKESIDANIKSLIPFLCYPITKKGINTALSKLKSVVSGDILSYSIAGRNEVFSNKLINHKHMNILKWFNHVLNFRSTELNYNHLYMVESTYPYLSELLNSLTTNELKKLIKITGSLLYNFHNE
recombinant RSV complex, sequence (P03421 whole entry, further chain): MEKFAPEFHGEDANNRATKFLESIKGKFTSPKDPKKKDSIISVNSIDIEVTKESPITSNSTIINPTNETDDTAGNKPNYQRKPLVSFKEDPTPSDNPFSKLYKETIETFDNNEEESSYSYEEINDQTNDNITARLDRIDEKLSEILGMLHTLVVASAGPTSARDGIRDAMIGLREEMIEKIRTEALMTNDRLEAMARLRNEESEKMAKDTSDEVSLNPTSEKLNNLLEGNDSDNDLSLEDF

SMILES | CC50 at 5 days [1, 3] [µM] | IC50 (recombinant RSV complex) [µM] | EC50 [2, 4] [µM] | EC50 (RSV replicon) [µM] | CC50 at 5 days ([1]; no virus, 5 days, CCK-8 readout, Tables C and D list compounds by CC50 band) [µM] | EC50 [2, 5] [µM]
COc1cc(C(=O)NCC(O)(c2cc3c(c(-c4ccc(F)c(Cl)c4)n2)CNC3(C)C)C(F)(F)F)ccc1OC1CC1 (stereo not drawn) [Compound 526] | 10 to 100 | < 1 | < 1 | < 1 |  | 
COc1cc(C(=O)NCC(O)(c2cc(C(C)(C)N)cc(-c3ccc(C#N)cc3)n2)C(F)(F)F)ccc1OC1CC1 (stereo not drawn) [Compound 527] |  | < 1 | < 1 | < 1 | 10 to 100 | 
COc1cc(C(=O)NCC(O)(c2cc(C(N)CO)cc(-c3ccc(F)c(Cl)c3)n2)C(F)(F)F)ccc1OC1CC1 (stereo not drawn) [Compound 528] | 10 to 100 | < 1 | < 1 | < 1 |  | 
COc1cc(C(=O)NCC(O)(c2cc(C(N)CO)cc(-c3ccc(F)cc3)n2)C(F)(F)F)ccc1OC1CC1 (stereo not drawn) [Compound 529] | 10 to 100 | < 1 | < 1 | < 1 |  | 
CCC1(N)COc2c1cc(C(O)(CNC(=O)c1ccc(OCCO)c(OC)c1)C(F)(F)F)nc2-c1ccc(F)cc1 (stereo not drawn) [Compound 530] | 10 to 100 | < 1 |  | < 1 |  | < 1
CCC1(N)COc2c1cc(C(O)(CNC(=O)c1ccc(OC3CC3)c(OC)c1)C(F)(F)F)nc2-c1ccc(F)cc1 (stereo not drawn) [Compound 531] | 10 to 100 | < 1 | < 1 | < 1 |  | 
COc1cc(C(=O)NCC(O)(c2cc(C(C)(N)CO)cc(-c3ccc(F)c(Cl)c3)n2)C(F)(F)F)ccc1OC1CC1 (stereo not drawn) [Compound 533] | 10 to 100 | < 1 | < 1 | < 1 |  | 
COc1cc(C(=O)NCC(O)(c2cc(C(C)(N)CF)cc(-c3ccc(F)c(Cl)c3)n2)C(F)(F)F)ccc1OC1CC1 (stereo not drawn) [Compound 534] | 10 to 100 | < 1 | < 1 | < 1 |  | 
COCC(C)(N)c1cc(-c2ccc(F)c(Cl)c2)nc(C(O)(CNC(=O)c2ccc(OC3CC3)c(OC)c2)C(F)(F)F)c1 (stereo not drawn) [Compound 535] | 10 to 100 | < 1 | < 1 | < 1 |  | 
COc1cc(C(=O)NCC(O)(c2cc(C(C)(N)C(N)=O)cc(-c3ccc(F)c(Cl)c3)n2)C(F)(F)F)ccc1OC1CC1 (stereo not drawn) [Compound 536] | 10 to 100 | < 1 | < 1 | < 1 |  | 
COc1cc(C(=O)NCC(O)(c2cc3c(c(-c4ccc(F)cc4)n2)OCC3(C)CN)C(F)(F)F)ccc1OC1CC1 (stereo not drawn) [Compound 538] | 10 to 100 | < 1 | < 1 | < 1 |  | 
COc1cc(C(=O)NCC(O)(c2cc3c(c(-c4ccc(F)cc4)n2)OCC3(C)N)C(F)(F)F)ccc1OCCO (stereo not drawn) [Compound 539] | 10 to 100 | < 1 | < 1 | < 1 |  | 
COc1cc(C(=O)NCC(O)(c2cc(C(C)(N)CF)cc(-c3ccc(F)c(Cl)c3)n2)C(F)(F)F)ccc1OCCO (stereo not drawn) [Compound 540] | 10 to 100 | < 1 |  | < 1 |  | < 1
COc1cc(C(=O)NCC(O)(c2cc3c(c(-c4ccc(F)cc4)n2)OCC3(C)N)C(F)(F)F)ccc1OCC(N)=O (stereo not drawn) [Compound 543] | 10 to 100 | < 1 | < 1 | < 1 |  | 
COc1cc(C(=O)NC[C@@](O)(c2cc(C(C)(C)N)cc(-c3ccc(F)cc3)n2)C(F)(F)F)ccc1OC[C@@H](C)O [Compound 545] | 10 to 100 | < 1 | < 1 | < 1 |  | 
COc1cc(C(=O)NC[C@](O)(c2cc(C(C)(C)N)cc(-c3ccc(F)cc3)n2)C(F)(F)F)ccc1OC[C@@H](C)O [Compound 546] | 10 to 100 | < 1 | < 1 | < 1 |  | 
COc1cc(C(=O)NC[C@@](O)(c2cc(C(C)(C)N)cc(-c3ccc(F)c(Cl)c3)n2)C(F)(F)F)ccc1OCC(N)=O [Compound 547] | 10 to 100 | < 1 | < 1 | < 1 |  | 
COc1cc(C(=O)NC[C@](O)(c2cc(C(C)(C)N)cc(-c3ccc(F)c(Cl)c3)n2)C(F)(F)F)ccc1OCC(N)=O [Compound 548] | 10 to 100 | < 1 | < 1 | < 1 |  | 
COc1cc(C(=O)NC[C@@](O)(c2cc(C(C)(C)N)cc(-c3ccc(F)c(Cl)c3)n2)C(F)(F)F)ccc1OC[C@@H](C)O [Compound 551] | 10 to 100 | < 1 | < 1 | < 1 |  | 
COc1cc(C(=O)NC[C@](O)(c2cc(C(C)(C)N)cc(-c3ccc(F)c(Cl)c3)n2)C(F)(F)F)ccc1OC[C@@H](C)O [Compound 552] | 10 to 100 | < 1 | < 1 | < 1 |  | 
COc1cc(C(=O)NC[C@](O)(c2cc(C(C)(C)N)cc(-c3ccc(F)cc3)n2)C(F)(F)F)ccc1OCCO [Compound 554] | 10 to 100 | < 1 | < 1 | < 1 |  | 
COc1cc(C(=O)NCC(O)(c2cc3c(c(-c4ccc(F)cc4)n2)OCC3(C)N)C(F)(F)F)ccc1OC[C@@H](C)O (stereo partly drawn) [Compound 556] | 10 to 100 | < 1 | < 1 | < 1 |  | 
COc1cc(C(=O)NCC(O)(c2cc(C(C)(C)N)cc(-c3ccnc(Cl)c3)n2)C(F)(F)F)ccc1OC1CC1 (stereo not drawn) [Compound 558] | 10 to 100 | < 1 | < 1 | < 1 |  | 
COc1cc(C(=O)NCC(O)(c2cc3c(c(-c4ccc(F)cc4)n2)OCC3(N)C(C)C)C(F)(F)F)ccc1OC1CC1 (stereo not drawn) [Compound 560] | 10 to 100 | < 1 |  | < 1 |  | < 1
COc1cc(C(=O)NC[C@@](O)(c2cc(C(C)(C)N)cc(-c3ccc(F)cc3)n2)C(F)(F)F)ccc1OCC(N)=O [Compound 561] | > 100 | < 10 | 1 to 50 | < 1 |  | 
COc1cc(C(=O)NC[C@](O)(c2cc(C(C)(C)N)cc(-c3ccc(F)cc3)n2)C(F)(F)F)ccc1OCC(N)=O [Compound 562] | > 100 | < 1 | < 1 | < 1 |  | 
COc1cc(C(=O)NCC(O)(c2cc([C@@]3(C)CCN3)cc(-c3ccc(F)c(Cl)c3)n2)C(F)(F)F)ccc1OC1CC1 (stereo partly drawn) [Compound 563] | 10 to 100 | < 1 | < 1 | < 1 |  | 
CC(C)(N)c1cc(-c2ccc(F)cc2)nc(C(O)(CNC(=O)c2ccc3c(c2)CC(=O)N3)C(F)(F)F)c1 (stereo not drawn) [Compound 571] | 10 to 100 | < 1 | < 1 | < 1 |  | 
COc1cc(C(=O)NCC(C)(O)c2cc(C(C)(C)N)cc(-c3ccc(F)cc3)n2)ccc1OC1CC1 (stereo not drawn) [Compound 574] | 10 to 100 | < 1 | < 1 | < 1 |  | 
COc1cc(C(=O)NCC(O)(c2cc(C(C)(C)NC3CCC3)cc(-c3ccc(F)c(Cl)c3)n2)C(F)(F)F)ccc1OC1CC1 (stereo not drawn) [Compound 575] | 10 to 100 | < 1 | < 1 | < 1 |  | 
